Results reported in patent publication US6727264B1 (Synaptic Pharmaceutical Corporation, priority 2001, dated 2004).

Biological target: rat MCH-1 (Rattus norvegicus, UniProt P97639)
Test: Radioligand binding assay at cloned rat MCH1 receptor ([3H] Compound A)
Parameters: host or cells: Peak rapid 293 (Peakr293) cells, transient calcium phosphate transfection, membranes
Settings: cloned rat MCH1 receptor, membranes from Peakr293 cells, 0.08 nM [3H] Compound A; read-out: Ki (nM) rMCH1

Sequence of rat MCH-1 (P97639 whole entry): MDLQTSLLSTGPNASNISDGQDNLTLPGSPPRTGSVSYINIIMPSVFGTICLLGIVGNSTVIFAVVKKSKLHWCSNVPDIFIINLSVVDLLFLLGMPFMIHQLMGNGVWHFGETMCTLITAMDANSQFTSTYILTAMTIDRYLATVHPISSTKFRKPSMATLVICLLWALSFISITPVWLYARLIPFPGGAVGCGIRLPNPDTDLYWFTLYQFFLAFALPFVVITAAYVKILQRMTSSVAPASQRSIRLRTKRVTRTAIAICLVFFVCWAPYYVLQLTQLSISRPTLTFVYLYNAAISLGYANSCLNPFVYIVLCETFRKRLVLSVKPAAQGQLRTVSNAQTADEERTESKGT

Ki	SMILES
13.5 nM	CC(C)C(=O)Nc1cccc(C2CCN(CCCC(c3ccc(F)cc3)c3ccc(F)cc3)CC2)n1 [Example 265]
6.4 nM	CC(C)C(=O)Nc1cccc(C2CCN(Cc3ccc(Oc4ccc(F)c(F)c4)cc3)CC2)n1 [Example 266]
20.3 nM	CCn1c2ccccc2c2cc(CN3CCC(c4ccc(C)c(NC(=O)C(C)C)c4)CC3)ccc21 [Example 268]
27.4 nM	Cc1ccc(C2CCN(Cc3ccc(Oc4ccc(F)c(F)c4)cc3)CC2)cc1NC(=O)C(C)C [Example 269]
3.4 nM	CCn1c2ccccc2c2cc(CN3CCC(c4cc(NC(=O)C(C)C)ccc4C)CC3)ccc21 [Example 270]
40.1 nM	Cc1ccc(C2CCN(CCCC(c3ccc(F)cc3)c3ccc(F)cc3)CC2)cc1NC(=O)C(C)C [Example 271]
196 nM	CC(=O)c1cccc(O[C@@H](CCN2CCC(c3ccc(C)c(NC(=O)C(C)C)c3)CC2)c2ccccc2)c1 [Example 273]
844 nM	CCn1c2ccccc2c2cc(CN3CCC(c4ccccc4NC(=O)C(C)C)CC3)ccc21 [Example 274]
3.1 nM	Cc1ccc(NC(=O)C(C)C)cc1C1CCN(CCCC(c2ccc(F)cc2)c2ccc(F)cc2)CC1 [Example 275]
734 nM	CC(C)C(=O)Nc1ccccc1C1CCN(CCCC(c2ccc(F)cc2)c2ccc(F)cc2)CC1 [Example 276]
118 nM	CC(C)C(=O)Nc1ccc(OC(F)(F)F)cc1C1CCN(CCCC(c2ccc(F)cc2)c2ccc(F)cc2)CC1 [Example 277]
85.8 nM	O=C(Nc1cccc(C2CCN(CC[C@@H](O)c3ccccc3)CC2)c1)C1CC1 [Example 278]
74.5 nM	CC(C)C(=O)Nc1cccc(C2CCN(CCCC(O)c3ccccc3)CC2)c1 (stereo not shown) [Example 279]
27.6 nM	CC(C)C(=O)Nc1cccc(C2CCN(CCCCC(O)c3ccccc3)CC2)c1 (stereo not shown) [Example 280]
7.9 nM	CC(C)C(=O)Nc1cccc(C2CCN(CCCCCC(O)c3ccccc3)CC2)c1 (stereo not shown) [Example 281]
23.5 nM	CC(C)C(=O)Nc1cccc(C2CCN(CCCCCCC(O)c3ccccc3)CC2)c1 (stereo not shown) [Example 282]
16.3 nM	Cc1onc(-c2c(Cl)cccc2Cl)c1C(=O)OC(CCCN1CCC(c2cccc(NC(=O)C(C)C)c2)CC1)c1ccccc1 (stereo not shown) [Example 284, 4-{4-[3-(ISOBUTYRYLAMINO)PHENYL]-1-PIPERIDINYL}-1-PHENYLBUTYL 3-(2,6-DICHLOROPHENYL)-5-METHYL-4-ISOXAZOLECARBOXYLATE]
10.3 nM	CC(C)C(=O)Nc1cccc(C2CCN(CCCC(OC(=O)Cc3ccc(F)cc3)c3ccccc3)CC2)c1 (stereo not shown) [Example 285]
67.8 nM	CC(C)C(=O)Nc1cccc(C2CCN(CCCOC(=O)Cc3ccc(F)cc3)CC2)c1 [Example 286]
34.3 nM	Cc1onc(-c2c(F)cccc2Cl)c1C(=O)OCCCN1CCC(c2cccc(NC(=O)C(C)C)c2)CC1 [Example 287, 3-{4-[3-(ISOBUTYRYLAMINO)PHENYL]-1-PIPERIDINYL}PROPYL 3-(2-CHLORO-6-FLUOROPHENYL)-5-METHYL-4-ISOXAZOLECARBOXYLATE]
30.2 nM	Cc1onc(-c2c(Cl)cccc2Cl)c1C(=O)OCCCN1CCC(c2cccc(NC(=O)C(C)C)c2)CC1 [Example 288, 3-{4-[3-(ISOBUTYRYLAMINO)PHENYL]-1-PIPERIDINYL}PROPYL 3-(2,6-DICHLOROPHENYL)-5-METHYL-4-ISOXAZOLECARBOXYLATE]
31.8 nM	Cc1onc(-c2ccccc2Cl)c1C(=O)OCCCN1CCC(c2cccc(NC(=O)C(C)C)c2)CC1 [Example 289, 3-{4-[3-(ISOBUTYRYLAMINO)PHENYL]-1-PIPERIDINYL}PROPYL 3-(2-CHLOROPHENYL)-5-METHYL-4-ISOXAZOLECARBOXYLATE]
51.9 nM	Cc1onc(-c2c(Cl)cccc2Cl)c1C(=O)O[C@@H](CCN1CCC(c2cccc(NC(=O)C(C)C)c2)CC1)c1ccccc1 [Example 290, (1S)-3-{4-[3-(ISOBUTYRYLAMINO)PHENYL]-1-PIPERIDINYL}-1-PHENYLPROPYL 3-(2,6-DICHLOROPHENYL)-5-METHYL-4-ISOXAZOLECARBOXYLATE]
24.3 nM	Cc1onc(-c2c(F)cccc2Cl)c1C(=O)OCCCCN1CCC(c2cccc(NC(=O)C(C)C)c2)CC1 [Example 291, 4-{4-[3-(ISOBUTYRYLAMINO)PHENYL]-1-PIPERIDINYL}BUTYL 3-(2-CHLORO-6-FLUOROPHENYL)-5-METHYL-4-ISOXAZOLECARBOXYLATE]
18.4 nM	Cc1onc(-c2ccccc2Cl)c1C(=O)OCCCCN1CCC(c2cccc(NC(=O)C(C)C)c2)CC1 [Example 292, 4-{4-[3-(ISOBUTYRYLAMINO)PHENYL]-1-PIPERIDINYL}BUTYL 3-(2-CHLOROPHENYL)-5-METHYL-4-ISOXAZOLECARBOXYLATE]
39.9 nM	Cc1onc(-c2ccccc2)c1C(=O)OCCCN1CCC(c2cccc(NC(=O)C(C)C)c2)CC1 [Example 293, 3-{4-[3-(ISOBUTYRYLAMINO)PHENYL]-1-PIPERIDINYL}PROPYL 5-METHYL-3-PHENYL-4-ISOXAZOLECARBOXYLATE]
15.8 nM	Cc1onc(-c2c(Cl)cccc2Cl)c1C(=O)OCCCCN1CCC(c2cccc(NC(=O)C(C)C)c2)CC1 [Example 294, 4-{4-[3-(ISOBUTYRYLAMINO)PHENYL]-1-PIPERIDINYL}BUTYL 3-(2,6-DICHLOROPHENYL)-5-METHYL-4-ISOXAZOLECARBOXYLATE]
8.7 nM	Cc1onc(-c2c(F)cccc2Cl)c1C(=O)OC(CCCN1CCC(c2cccc(NC(=O)C(C)C)c2)CC1)c1ccccc1 (stereo not shown) [Example 295, 4-{4-[3-(ISOBUTYRYLAMINO)PHENYL]-1-PIPERIDINYL}-1-PHENYLBUTYL 3-(2-CHLORO-6-FLUOROPHENYL)-5-METHYL-4-ISOXAZOLECARBOXYLATE]

Ki	SMILES
20 nM	Cc1onc(-c2ccccc2)c1C(=O)OCCCCN1CCC(c2cccc(NC(=O)C(C)C)c2)CC1 [Example 296, 4-{4-[3-(ISOBUTYRYLAMINO)PHENYL]-1-PIPERIDINYL}BUTYL 5-METHYL-3-PHENYL-4-ISOXAZOLECARBOXYLATE]
11.9 nM	Cc1onc(-c2c(Cl)cccc2Cl)c1C(=O)OCCCCCCN1CCC(c2cccc(NC(=O)C(C)C)c2)CC1 [Example 297, 6-{4-[3-(ISOBUTYRYLAMINO)PHENYL]-1-PIPERIDINYL}HEXYL 3-(2,6-DICHLOROPHENYL)-5-METHYL-4-ISOXAZOLECARBOXYLATE]
40.1 nM	Cc1onc(-c2ccccc2)c1C(=O)OCCCCCCN1CCC(c2cccc(NC(=O)C(C)C)c2)CC1 [Example 298, 6-{4-[3-(ISOBUTYRYLAMINO)PHENYL]-1-PIPERIDINYL}HEXYL 5-METHYL-3-PHENYL-4-ISOXAZOLECARBOXYLATE]
37.5 nM	CC(C)C(=O)Nc1cccc(C2CCN(CCCCOC(=O)Cc3ccc(F)cc3)CC2)c1 [Example 299]
7.6 nM	Cc1onc(-c2ccccc2Cl)c1C(=O)OC(CCCN1CCC(c2cccc(NC(=O)C(C)C)c2)CC1)c1ccccc1 (stereo not shown) [Example 300, 4-{4-[3-(ISOBUTYRYLAMINO)PHENYL]-1-PIPERIDINYL}-1-PHENYLBUTYL 3-(2-CHLOROPHENYL)-5-METHYL-4-ISOXAZOLECARBOXYLATE]
4 nM	CC(C)C(=O)Nc1cccc(C2CCN(CC[C@H](NC(=O)C(c3ccccc3)c3ccccc3)c3ccccc3)CC2)c1 [Example 304]
177 nM	CC(C)C(=O)Nc1cccc(C2CCN(CC[C@H](NC(=O)c3cccc(Cl)c3)c3ccccc3)CC2)c1 [Example 305]
168 nM	CC(C)C(=O)Nc1cccc(C2CCN(CC[C@H](NC(=O)c3cc(Cl)cc(Cl)c3)c3ccccc3)CC2)c1 [Example 306]
97.4 nM	CCSc1ncccc1C(=O)N[C@@H](CCN1CCC(c2cccc(NC(=O)C(C)C)c2)CC1)c1ccccc1 [Example 307]
402 nM	CC(C)C(=O)Nc1cccc(C2CCN(CC[C@H](NC(=O)c3ccc(-c4ccccc4)cc3)c3ccccc3)CC2)c1 [Example 308]
310 nM	CC(C)C(=O)Nc1cccc(C2CCN(CC[C@H](NC(=O)c3ccccn3)c3ccccc3)CC2)c1 [Example 309]
152 nM	COc1ccccc1C(=O)N[C@@H](CCN1CCC(c2cccc(NC(=O)C(C)C)c2)CC1)c1ccccc1 [Example 310]
43 nM	CC(C)C(=O)Nc1cccc(C2CCN(CC[C@H](NC(=O)c3cccc4ccccc34)c3ccccc3)CC2)c1 [Example 311]
61.5 nM	CC(C)C(=O)Nc1cccc(C2CCN(CC[C@H](NC(=O)c3ccc(F)cc3F)c3ccccc3)CC2)c1 [Example 312]
249 nM	Cc1onc(-c2c(F)cccc2Cl)c1C(=O)N[C@@H](CCN1CCC(c2cccc(NC(=O)C(C)C)c2)CC1)c1ccccc1 [Example 313]
7.6 nM	CC(C)C(=O)Nc1cccc(C2CCN(CC[C@H](NC(=O)c3sccc3Cl)c3ccccc3)CC2)c1 [Example 314]
11.4 nM	CC(C)C(=O)Nc1cccc(C2CCN(CC[C@H](NC(=O)c3cccnc3Oc3ccccc3)c3ccccc3)CC2)c1 [Example 315]
8.3 nM	CCCc1nn(-c2ccc(Cl)cc2)cc1C(=O)N[C@@H](CCN1CCC(c2cccc(NC(=O)C(C)C)c2)CC1)c1ccccc1 [Example 316]
110 nM	Cc1nn(C)c2ncc(C(=O)N[C@@H](CCN3CCC(c4cccc(NC(=O)C(C)C)c4)CC3)c3ccccc3)c(Cl)c12 [Example 317]
251 nM	CC(C)C(=O)Nc1cccc(C2CCN(CC[C@H](NC(=O)c3ccc(Oc4cc(Cl)cc(Cl)c4)[nH]3)c3ccccc3)CC2)c1 [Example 318]
89.8 nM	CC(C)C(=O)Nc1cccc(C2CCN(CC[C@H](NC(=O)c3cccnc3)c3ccccc3)CC2)c1 [Example 319]
10.6 nM	CC(C)C(=O)Nc1cccc(C2CCN(CC[C@H](NC(=O)c3ccc(F)c(F)c3)c3ccccc3)CC2)c1 [Example 320]
50.9 nM	CCCc1nn(-c2ccccc2)cc1C(=O)N[C@@H](CCN1CCC(c2cccc(NC(=O)C(C)C)c2)CC1)c1ccccc1 [Example 321]
99.9 nM	CC(C)C(=O)Nc1cccc(C2CCN(CC[C@H](NC(=O)c3ccc(N(C)C)cc3)c3ccccc3)CC2)c1 [Example 322]
37 nM	CC(C)C(=O)Nc1cccc(C2CCN(CC[C@H](NC(=O)c3cccs3)c3ccccc3)CC2)c1 [Example 323]
76.8 nM	CC(C)C(=O)Nc1cccc(C2CCN(CC[C@H](NC(=O)c3ccc([N+](=O)[O-])o3)c3ccccc3)CC2)c1 [Example 324]
29.8 nM	Cc1onc(-c2ccccc2)c1C(=O)NCCCN1CCC(c2cccc(NC(=O)C(C)C)c2)CC1 [Example 325]
